Measurements taken from patent publication US8907131B2, “Compounds for treating proliferative disorders” (Synta Pharmaceuticals Corp., priority 2007, dated 2014).

Test system: Hsp70
Assay: Hsp70 ELISA assay: Hsp70 induction in Ramos B lymphoma cells
Assay type: cell-based
Conditions: Homo sapiens; Ramos B lymphoma cells treated at 10, 50, 250 and 1250 nM for 5 h; whole culture lysate, Hsp70 ELISA; read-out: ED50 (Hsp70 induction)
Method: Hsp70 induction was measured in Ramos B lymphoma cells. Cells were seeded at 80 μl/well in 96-plate and treated with compounds at 10, 50, 250 and 1250 nM for 5 h. […] Cells were lysed in culture medium with ¼-vol of alkaline-detergent buffer composed of 200 mM bicarbonate, pH 9.4, and 20% Triton X100 to include Hsp70 that would be released into culture supernatant. […] Fifty microliter of the whole culture lysate was transferred to Hsp70 ELISA assay well (Assay Design) including 150 μl of immunoenhancer solution (Toyobo, Japan). Then the assay steps were carried out according to the protocol of the manufacturer. Compound A was included in each cell culture plate as a reference to normalize the interexperimental variance.

SMILES	EC50
CN(NC(=O)CC(=O)NN(C)C(=[Se])c1ccccc1)C(=[Se])c1ccccc1 [Compound 1, N′1,N′3-dimethyl-N′1,N′3-di(phenylcarbonoselenoyl)malonohydrazide]	0.07 µM
CO/N=C(\c1ccccc1)N(C)NC(=O)CC(=O)NN(C)/C(=N/OC)c1ccccc1 [Compound 10, N′1,N′3-bis((E)-(methoxyimino)(phenyl)methyl)-N′1,N′3-dimethylmalonohydrazide]	> 1.25 µM
CN(NC(=O)CC(=O)NN(C)/C(=N/O)c1ccccc1)/C(=N/O)c1ccccc1 [Compound 11, N′1,N′3-bis((E)-(hydroxyimino)(phenyl)methyl)-N′1,N′3-dimethylmalonohydrazide]	> 1.25 µM
COc1ccc(OC)c(C(=[Se])N(C)NC(=O)CC(=O)NN(C)C(=[Se])c2cc(OC)ccc2OC)c1 [Compound 12, N′^1,N′3-bis(2,5-dimethoxyphenylcarbonoselenoyl)-N′^1,N′^3-dimethylmalonohydrazide]	> 1.25 µM
CNN=C(C(=O)NN(C)C(=[Se])c1ccccc1)C(=O)NN(C)C(=[Se])c1ccccc1 [Compound 13, N′1,N′3-dimethyl-2-(2-methylhydrazono)-N′1,N′3-di(phenylcarbonoselenoyl)malonohydrazide]	> 1.25 µM
CN(NC(=O)CS(=O)(=O)NN(C)C(=[Se])c1ccccc1)C(=[Se])c1ccccc1 [Compound 14, N′-methyl-2-(2-methyl-2-(phenylcarbonoselenoyl)hydrazinyl)-2-oxo-N′-(phenylcarbonoselenoyl)ethanesulfonohydrazide]	> 1.25 µM

Same assay, conditions: Ramos B lymphoma cells; titration used to set cell density

SMILES	Hsp70 induction
CN(NC(=O)CC(=O)NN(C)C(=S)c1ccccc1)C(=S)c1ccccc1 [Compound A, reference compound]	Hsp70 induction in linear manner with concentration
